Laboratory results as given in patent publication US7037901B1, “Radiosensitization by indolocarbazole derivatives” (priority 2001, dated 2006).

Legend:
[1] = system: human breast cancer MCF-7 cells; test: Clonogenic survival assay, drug alone (cytotoxicity) in MCF-7 cells; format: cell-based; details: 2 μg/ml for 1 h, read graphically from FIG. 2
Protocol: (§1) Clonogenic Survival Assay. […] 18–24 h prior to experimental studies.
(§2) Colonies consisting of >50 cells were counted.

[2] = system: human MCF-7, Chinese hamster CHO and DC3F cells; test: Cytotoxicity (LD50) by clonogenic survival assays in three cell lines; format: cell-based; details: 1 h drug treatment; MCF-7, CHO and DC3F cells
Protocol: as §1, §2
We investigated the relationship between the TOP1-mediated DNA damage and the cytotoxic and radiosensitizing effects induced by the six INDO derivatives. The cytotoxicity of various INDO derivatives was determined by exposing logarithmically growing human MCF-7, Chinese hamster CHO and DC3F cells to the individual drug for 1 hr, followed by clonogenic survival assays.

[3] = system: human MCF-7 and Chinese hamster DC3F cells; test: RS activity summary (MCF-7 and DC3F cells); format: cell-based; parameters: key: +: possess RS activity; −: possess no RS activity; details: MCF-7 (FIG. 2) and DC3F cells (Table 4)
Protocol: as §1, §2
Irradiation of Cells. Drug-treated and control cells in medium were irradiated using a cobalt-60 source (Eldorado 8; Theratronics, Canada) at a dose rate of 105 cGy/min.
Analysis of Survival Curves. Survival curves were corrected for cytotoxicity induced by drug alone treatment. Sensitization enhancement ratios (SERs) and standard deviations for survival curves were determined at 10% cell survival. Each SER was calculated by dividing the radiation dose to induce 10% cell survival in the absence of radiosensitizer with the radiation dose to induce 10% cell survival in the presence of radiosensitizer.

[4] = target: T1, purified human TOP1 (Homo sapiens, UniProt P11387); test: In vitro drug-stimulated TOP1 cleavage assay (pHOT1 plasmid nicking); format: biochemical; parameters: key to TOP1-mediated DNA cleavage: +++: high activity; ++: modest activity; +: low activity; details: for TOP1-mediated DNA cleavage: in vitro, based on FIG. 4B and 4C; for Potency in inducing TOP1-mediated DNA cleavage (nicking of pHOT1): purified human TOP1, FIG. 4, 4C
T1 construct: purchased TopoGEN, Inc. (Columbus, Ohio)
T1 sequence (P11387 1-765): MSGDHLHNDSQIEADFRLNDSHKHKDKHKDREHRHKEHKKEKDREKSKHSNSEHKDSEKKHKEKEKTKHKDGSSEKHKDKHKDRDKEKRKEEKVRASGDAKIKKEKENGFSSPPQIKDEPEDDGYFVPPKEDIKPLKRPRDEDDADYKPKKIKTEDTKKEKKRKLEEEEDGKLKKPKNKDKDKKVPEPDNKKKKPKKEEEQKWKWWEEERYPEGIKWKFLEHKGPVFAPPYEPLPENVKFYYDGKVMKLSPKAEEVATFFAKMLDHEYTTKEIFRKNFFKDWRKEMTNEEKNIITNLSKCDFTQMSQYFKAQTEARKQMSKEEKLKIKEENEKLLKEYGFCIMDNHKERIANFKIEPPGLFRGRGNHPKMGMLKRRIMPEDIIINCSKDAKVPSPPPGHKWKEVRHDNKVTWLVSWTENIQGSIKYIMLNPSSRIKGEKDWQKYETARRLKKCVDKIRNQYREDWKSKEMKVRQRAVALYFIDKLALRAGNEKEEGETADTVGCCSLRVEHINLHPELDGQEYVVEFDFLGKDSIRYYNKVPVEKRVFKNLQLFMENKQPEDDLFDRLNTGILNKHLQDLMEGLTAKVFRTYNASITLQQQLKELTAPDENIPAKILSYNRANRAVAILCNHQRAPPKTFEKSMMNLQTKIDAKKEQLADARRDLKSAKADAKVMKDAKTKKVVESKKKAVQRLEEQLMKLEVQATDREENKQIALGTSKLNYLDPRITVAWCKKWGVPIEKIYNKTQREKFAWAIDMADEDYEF
Protocol: In vitro drug-stimulated TOP1 cleavage assay. Drug-stimulated DNA cleavage assay using purified human TOP1 was performed according to the protocol provided by TopoGEN Inc. (Columbus, Ohio) with modifications.
Briefly, supercoiled pHOT1 plasmid DNA (0.2 μg) was incubated with 1 unit of human TOP1 in cleavage buffer (50 mM Tris, pH 7.8, 50 mM KCl, 10 mM MgCl2, 1 mM dithiothreitol, 1 mM EDTA) in the presence of varying concentrations of the drug under study. Following a 30-min incubation at 37° C., the reactions were terminated by adding SDS to 1.0% and proteinase K to 200 μg/ml. The proteinase K treatment continued at 37° C. for 1 h. The sample was then mixed with loading dye (containing sucrose and bromphenol blue) and separated in 1% agarose gel in 0.08 M Tris-phosphate, 0.008 M EDTA, pH 8.0 buffer at room temperature for 16 h.
The gel was initially stained with ethidium bromide ([…]), washed and photographed under UV light. In order to separate the “nicked” from the “relaxed” DNA population, the gel was further run for 4 h in the presence of ethidium bromide before being photographed again under UV light. The photograph was scanned and the intensity of the nicked DNA of each lane was measured using the ImageJ program obtained from the National Institutes of Health (web site: rsb.info.nih.gov/ij/). The intensity of the nicked band of each lane was plotted after the background intensity (pHOT1+TOP1 lane) was subtracted.

[5] = system: camptothecin-resistant, TOP1 mutant DC3F/C-10 cells; details: for Cytotoxic effect: DC3F/C10 cells
Protocol: Clonogenic Survival Assay. For a typical clonogenic survival experiment, stock cultures of exponentially growing cells were trypsinized, rinsed, and plated (5×10^5 cells per dish for DC3F and DC3F/C-10 cells; 1×10^6 cells for MCF-7 cells) into 100-mm petri dishes and incubated at 37° C. 18–24 h prior to experimental studies.
Following various experimental protocols with drug incubation and irradiation, cells were trypsinized, rinsed, counted, and plated for […] colony formation. Depending on the anticipated survival level, 10^2 to 10^5 cells were plated per dose point. When higher cell numbers were plated, large petri dishes were used to avoid possible cell-density effect (100-mm instead of 60-mm petri dishes for cell number≧5×10^4). Depending on the treatment protocols, an equivalent amount of DMSO was added into each of the control radiation alone dishes (final DMSO concentration <0.1%).
Following seven to fourteen days of incubation, colonies were fixed with methanol/acetic acid (3:1), stained with crystal violet. Colonies consisting of >50 cells were counted. All survival points were done in triplicate, and experiments were conducted a minimum of two times. Error bars shown in the figures represent standard deviations (SD) and are shown when larger than the symbol.
The DC3F/C-10 cell line was selected from the Chinese Hamster lung fibroblast DC3F cell line in the presence of 1 μM of camptothecin (Albright, N., Radiat. Res., 112:331–340 (1987), and Chen, Y. N., J. Biol. Chem., 265:10073–10080 (1990)). […] In an attempt to determine the importance of TOP1 in mediating the cytotoxic and radiosensitizing effects by INDO derivatives, clonogenic survival assays were performed in DC3F and DC3F/C10 cells.

SMILES	Percent of cell survival without RT [1] [%]	Cytotoxicity (based on LD50) [2]	RS (radiosensitization activity) [3]	TOP1-mediated DNA cleavage [4]	Potency in inducing TOP1-mediated DNA cleavage (nicking of pHOT1) [4]	Cytotoxic effect [5]	RR (relative resistance) [5]	Relative resistance of DC3F/C10 cells to the cytotoxic effect [5]
CO[C@H]1[C@H](O)[C@@H](O)[C@H](n2c3c(Cl)cccc3c3c4c(c5c6cccc(Cl)c6[nH]c5c32)C(=O)NC4=O)O[C@@H]1CO [F1, rebeccamycin]	94 ± 8	++ (modest activity, LD50 >4 μg/ml but ≦10 μg/ml)	+	+	less potent group	lack of cytotoxic effect		
COC1C(CO)OC(n2c3ccccc3c3c4c(c5c6ccccc6[nH]c5c32)C(=O)OC4=O)C(O)C1O (stereo not drawn) [F5]	98 ± 2	+ (low activity, LD50 >10 μg/ml)	+	+	less potent group	lack of cytotoxic effect		
COC1C(CO)OC(n2c3ccccc3c3c4c(c5c6ccccc6[nH]c5c32)C(=O)N(O)C4=O)C(O)C1O (stereo not drawn) [F7]	98 ± 2	++ (modest activity, LD50 >4 μg/ml but ≦10 μg/ml)	+	+++	equivalent activity as camptothecin		>5.0	more than 5 fold
COC1C(CO)OC(n2c3c(Cl)cccc3c3c4c(c5c6cccc(Cl)c6[nH]c5c32)C(=O)N(C)C4=O)C(O)C1O (stereo not drawn) [F43]	95 ± 5	+ (low activity, LD50 >10 μg/ml)	−	+	less potent group	lack of cytotoxic effect		
COC1C(CO)OC(n2c3ccccc3c3c4c(c5c6ccccc6[nH]c5c32)C(=O)N(C)C4=O)C(O)C1O (stereo not drawn) [F44]	100 ± 2	+++ (high activity, LD50 ≦4 μg/ml)	−	++	less potent group		2.5	2.5 fold
COC1C(CO)OC(n2c3ccccc3c3c4c(c5c6ccccc6[nH]c5c32)C(=O)NC4=O)C(O)C1O (stereo not drawn) [F71]	85 ± 10	+++ (high activity, LD50 ≦4 μg/ml)	−	+++	equivalent activity as camptothecin		2.7	2.7 fold
